In publication PMC11847541, “Liver fatty acid binding protein FABP1 transfers substrates to cytochrome P450 4A11 for catalysis” (The Journal of Biological Chemistry, 2025):

Experiments:
P450 4A11 [1] = target: T1, P450 4A11 (Homo sapiens, UniProt Q02928); assay: Stopped-flow kinetics of palmitate binding to P450 4A11 (type I shift); set-up: made in house; host or cells: E. coli; conditions: P450 4A11 1 μM, palmitate 5 μM; read-out: kon to P450 4A11 (k1)
T1 sequence (Q02928 5-519): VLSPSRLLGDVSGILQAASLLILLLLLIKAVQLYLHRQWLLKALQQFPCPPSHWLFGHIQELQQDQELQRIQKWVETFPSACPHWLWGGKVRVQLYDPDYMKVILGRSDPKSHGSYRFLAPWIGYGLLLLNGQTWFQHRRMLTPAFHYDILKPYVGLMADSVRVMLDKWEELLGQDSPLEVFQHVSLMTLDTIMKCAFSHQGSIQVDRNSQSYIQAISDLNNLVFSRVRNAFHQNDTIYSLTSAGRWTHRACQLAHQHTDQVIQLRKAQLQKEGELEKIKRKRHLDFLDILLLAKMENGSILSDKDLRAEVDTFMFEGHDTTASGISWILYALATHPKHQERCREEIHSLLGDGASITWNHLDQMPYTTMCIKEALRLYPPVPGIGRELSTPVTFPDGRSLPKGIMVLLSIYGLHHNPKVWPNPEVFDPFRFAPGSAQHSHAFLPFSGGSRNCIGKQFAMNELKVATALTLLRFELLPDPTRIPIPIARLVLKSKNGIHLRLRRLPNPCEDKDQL
Method: To assess the rates of lipid binding to P450 4A11 (k1), type I spectral shift (from ∼420 nm to ∼390 nm, described previously) was monitored after rapid mixing of P450 and palmitate (Fig. 9A, magenta [substrate free], blue [substrate bound]). When P450 4A11 (1 μM) was mixed with palmitate (5 μM), slow binding kinetics were observed (Fig. 9B). Single exponential fitting of the data yielded a binding rate of 0.21 ± 0.03 s^−1 (kon = k1 = 4.2 ± 0.6 × 10^4 M^−1 s^−1).
Figure 9 Kinetics of fatty acid binding to P450 4A11.A, spectra were collected with 1 μM P450 4A11 (purple line) to which 5 μM palmitate (blue line) and 50 μM ketoconazole (red line) were successively added to induce characteristic P450 “type I” and “type II” spectral shifts, respectively. B, P450 4A11 (1 μM) was rapidly mixed with palmitate (5 μM), and the P450 blue shift (A) was monitored and fit to an exponential equation (blue line) yielding a kon value of 0.21 ± 0.03 s^−1. C, 16-OH palmitate (4 μM) and D, palmitate (10 μM) were preincubated with P450 4A11 (2 μM) and rapidly mixed with ketoconazole (100 μM), and the P450 red shift (part A) was monitored and fit to biexponential equations (red lines). […]
On-rates (kon) to P450 4A11 with lipids were determined by monitoring the hypsochromic (“blue,” “type I”) shift in the heme Soret (A418 [hexacoordinated] → A390 [pentacoordinated]) as substrate binds. […]

P450 4A11 [2] = target: T1, P450 4A11; type: binding; set-up: made in house; host or cells: E. coli; conditions: for substrate transfer rate from FABP1 to P450 4A11: FABP1, DAUDA, palmitate 0.2 μM each, P450 4A11 2 μM
Method: Set up as a reverse experiment of the fluorescence displacement assay (Fig. 5), this experiment involved mixing equimolar concentrations (0.2 μM) of DAUDA, FABP1, and palmitate to form a solution ( FDS↔FD+S↔FS+D ) with low fluorescence (Fig. 5A). That solution was then rapidly mixed with an excess of P450 4A11 (2 μM), and the gain of fluorescence was monitored (i.e., as substrate was transferred from FABP1 to P450, either as FDS + P450 → FD + P450-S or as FS + P450 + D → P450-S + F + D → FD; Fig. 5A). As expected, we observed a weak but reproducible stimulation of fluorescence in this experiment (n = 6 shots), and the data were fit to single exponential equation yielding a substrate transfer rate (k6) of 4.2 ± 0.9 s^−1 (Fig. 11).
Figure 11 Rate of palmitate transfer (ktransfer) from FABP1 to P450 4A11. A stoichiometric mixture of FABP1, DAUDA, and palmitate (0.2 μM) was mixed with P450 4A11 (2 μM), and the gain of fluorescence (>420 nm) was monitored (i.e., as FDS + E → FD + ES, Fig. 5A). Six traces were averaged and fit to a single exponential equation, yielding a rate of 4.2 ± 0.9 s^−1. […] replicate experiments were averaged to generate the trace. DAUDA, 11-dansylaminoundecanoic acid; FABP1, fatty acid binding protein.
To estimate the rate of transfer of palmitate from FABP1 to P450 4A11, a mixture of palmitate, FABP1, and DAUDA (0.4 μM, each component) was mixed against a solution of P450 4A11 (4 μM). All components were diluted twofold to their final concentrations in the mixing process. The experiment was performed with stopped-flow parameters identical to the experiments of FABP1 with lipids (aforementioned), and data were processed in the same manner, with the exception that a smoothing factor of 0.4 was applied to the data (in Microsoft Excel) prior to curve fitting.

[3] = set-up: method as in PMID 2335507; conditions: cited from earlier work

| kon (P450 4A11 [1]) | substrate transfer rate from FABP1 to P450 4A11 (P450 4A11 [2]) | Molecule | rate of FABP1 lipid transfer to phospholipid membranes [3] | rate of transfer to P450 4A11 relative to transfer to phospholipid membranes (P450 4A11 [2]) |
| --- | --- | --- | --- | --- |
| 42000 ± 6e+07 M⁻¹ s⁻¹ | 4.2 ± 0.9 s⁻¹ | CCCCCCCCCCCCCCCC(=O)O [Palmitate (C16), palmitate] |  |  |
|  | ~5 s⁻¹ | FABP1: delipidated recombinant liver fatty acid binding protein with C-terminal hexahistidine tag | ~0.005 s⁻¹ | ~1000 fold |
